Laboratory results published in patent US8088930B2, “Benzimidazole derivatives” (Hoffmann-La Roche Inc., priority 2008, dated 2012).

Target: T1, FXR ligand binding domain (GST-FXR LBD fusion protein, human FXR aa 193-473) (Homo sapiens, UniProt Q96RI1)
T1 construct: fused on or other part: Glutathione-S-transferase (GST) fused N-terminally to the FXR LBD, used to capture the protein on glutathione SPA beads
T1 sequence (Q96RI1 211-486 limits assumed): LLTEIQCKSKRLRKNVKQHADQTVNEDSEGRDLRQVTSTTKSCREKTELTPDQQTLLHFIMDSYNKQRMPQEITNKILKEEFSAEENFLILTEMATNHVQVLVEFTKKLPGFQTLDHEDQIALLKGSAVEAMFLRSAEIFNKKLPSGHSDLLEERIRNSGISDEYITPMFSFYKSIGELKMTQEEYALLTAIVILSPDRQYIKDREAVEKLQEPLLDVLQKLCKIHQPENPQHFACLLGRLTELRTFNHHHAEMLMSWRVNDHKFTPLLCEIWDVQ
Assay: Radioligand binding assay (scintillation proximity, radioligand displacement)
Details: 40 nM GST-FXR LBD on SPA beads, test compound 6×10^−9 M to 2.5×10^−5 M, read-out: h-IC50 Binding
Protocol: The following tests were carried out in order to determine the activity of the compounds of formula (I).
To accomplish this, the portions of the sequences encoding the FXR LBD were amplified by polymerase chain reaction (PCR) from a full-length clone by PCR and then subcloned into the plasmid vectors. The final clone was verified by DNA sequence analysis.
The induction, expression, and subsequent purification of GST-LBD fusion protein was performed in E. coli strain BL21(pLysS) cells by standard methods (Current Protocols in Molecular Biology, Wiley Press, ed. Ausubel et al.).
Radioligand Binding Assay
Binding of test substances to the FXR ligand binding domain was assessed in a radioligand displacement assay. The assay was performed in a buffer consisting of 50 mM Hepes, pH 7.4, 10 mM NaCl, 5 mM MgCl2, 0.01% CHAPS. For each reaction well in a 96-well plate, 40 nM of GST-FXR LBD fusion protein was bound to 10 μg glutathione yttrium silicate SPA beads (Pharmacia Amersham) in a final volume of 50 μl by shaking. A radioligand (e.g., 20 nM of 2,N-dicyclohexyl-2-[2-(2,4 dimethoxy-phenyl)-benzoimidazol-1-yl]-acetamide) and test compounds were added, and scintillation proximity counting was performed. All binding assays were performed in 96-well plates and the amount of bound ligand was measured on a Packard TopCount using OptiPlates (Packard).

SMILES | IC50 [µM]
O=C(O)C1(Oc2ccc(OCC(C3CCCCC3)n3c(-c4ccc(Cl)cc4)nc4cc(F)c(F)cc43)nc2)CC1 (single isomer, unassigned; (-)) [Example 51, (−)-1-(6-{2-[2-(4-Chloro-phenyl)-5,6-difluoro-benzoimidazol-1-yl]-2-cyclohexyl-ethoxy}-pyridin-3-yloxy)-cyclopropanecarboxylic acid] | 0.3
Cc1cc(C(=O)O)cc(C)c1OCC(C1CCCCC1)n1c(-c2ccc(Cl)cc2)nc2cc(F)c(F)cc21 (single isomer, unassigned; (-)) [Example 55, (−)-4-{2-[2-(4-Chloro-phenyl)-5,6-difluoro-benzoimidazol-1-yl]-2-cyclohexyl-ethoxy}-3,5-dimethyl-benzoic acid] | 0.004
Fc1cc2nc(-c3ccc(Cl)cc3)n(C(COc3ccc(-c4nnn[nH]4)cn3)C3CCCCC3)c2cc1F (single isomer, unassigned; (-)) [Example 63, (−)-2-(4-Chloro-phenyl)-1-{1-cyclohexyl-2-[5-(1H-tetrazol-5-yl)-pyridin-2-yloxy]-ethyl}-5,6-difluoro-1H-benzoimidazole] | 0.09
O=C(O)c1ccc(COCC(C2CCCCC2)n2c(-c3ccc(Cl)cc3)nc3cc(F)c(F)cc32)c(F)c1 (single isomer, unassigned; (-)) [Example 65, (−)-4-{2-[2-(4-Chloro-phenyl)-5,6-difluoro-benzoimidazol-1-yl]-2-cyclohexyl-ethoxymethyl}-3-fluoro-benzoic] | 0.2
O=C(O)c1ccc(COCC(C2CCCCC2)n2c(-c3ccc(Cl)cc3)nc3cc(F)c(F)cc32)cc1 (single isomer, unassigned; (-)) [Example 68, (−)-4-{2-[2-(4-Chloro-phenyl)-5,6-difluoro-benzoimidazol-1-yl]-2-cyclohexyl-ethoxymethyl}-benzoic acid] | 0.06
Cc1cc(-c2nnn[nH]2)cc(C)c1OCC(C1CCCCC1)n1c(-c2ccc(Cl)cc2)nc2cc(F)c(F)cc21 (single isomer, unassigned; (-)) [Example 71, (−)-2-(4-Chloro-phenyl)-1-{1-cyclohexyl-2-[2,6-dimethyl-4-(1H-tetrazol-5-yl)-phenoxy]-ethyl}-5,6-difluoro-1H-benzoimidazole] | 0.06
COc1ccc(-c2nc3cc(F)c(F)cc3n2C(COc2ccc(C(=O)O)cn2)C2CCCCC2)c(OC)n1 (single isomer, unassigned; (-)) [Example 75, (−)-6-{2-Cyclohexyl-2-[2-(2,6-dimethoxy-pyridin-3-yl)-5,6-difluoro-benzoimidazol-1-yl]-ethoxy}-nicotinic acid] | 0.09
O=C(O)c1cc(F)c(OCC(C2CCCCC2)n2c(-c3ccc(Cl)cc3)nc3cc(F)c(F)cc32)c(Cl)c1 (single isomer, unassigned; (-)) [Example 77, (−)-3-Chloro-4-{2-[2-(4-chloro-phenyl)-5,6-difluoro-benzoimidazol-1-yl]-2-cyclohexyl-ethoxy}-5-fluoro-benzoic acid] | 0.003
Fc1cc2nc(-c3ccc(Cl)cc3)n(C(COc3ccc(-c4nnn[nH]4)cc3F)C3CCCCC3)c2cc1F (single isomer, unassigned; (-)) [Example 81, (−)-2-(4-Chloro-phenyl)-1-{1-cyclohexyl-2-[2-fluoro-4-(1H-tetrazol-5-yl)-phenoxy]-ethyl}-5,6-difluoro-1H-benzoimidazole] | 0.01
O=C(O)c1cc(F)c(OCC(C2CCCCC2)n2c(-c3ccc(Cl)cc3)nc3cc(F)c(F)cc32)c(F)c1 (single isomer, unassigned; (-)) [Example 86, (−)-4-{2-[2-(4-Chloro-phenyl)-5,6-difluoro-benzoimidazol-1-yl]-2-cyclohexyl-ethoxy}-3,5-difluoro-benzoic acid] | 0.003
CC(C)(Oc1ccc(-c2nnn[nH]2)cc1)C(C1CCCCC1)n1c(-c2ccc(Cl)cc2)nc2cc(F)c(F)cc21 (single isomer, unassigned; (-)) [Example 88, (−)-2-(4-Chloro-phenyl)-1-{1-cyclohexyl-2-methyl-2-[4-(1H-tetrazol-5-yl)-phenoxy]-propyl}-5,6-difluoro-1H-benzoimidazole] | 0.003
CC(C)(Oc1ccc(C(=O)O)cc1)C(C1CCCCC1)n1c(-c2ccc(Cl)cc2)nc2cc(F)c(F)cc21 (single isomer, unassigned; (-)) [Example 89, (−)-4-{2-[2-(4-Chloro-phenyl)-5,6-difluoro-benzoimidazol-1-yl]-2-cyclohexyl-1,1-dimethyl-ethoxy}-benzoic acid] | 0.01
COc1ccc(-c2nc3cc(F)c(F)cc3n2C(COc2c(F)cc(C(=O)O)cc2F)C2CCCCC2)c(OC)n1 (single isomer, unassigned; (-)) [Example 98, (−)-4-{2-Cyclohexyl-2-[2-(2,6-dimethoxy-pyridin-3-yl)-5,6-difluoro-benzoimidazol-1-yl]-ethoxy}-3,5-difluoro-benzoic acid] | 0.001
COc1ccc(-c2nc3cc(F)c(F)cc3n2C(COc2c(C)cc(-c3nnn[nH]3)cc2C)C2CCCCC2)c(OC)n1 (single isomer, unassigned; (-)) [Example 101, (−)-1-{1-Cyclohexyl-2-[2,6-dimethyl-4-(1H-tetrazol-5-yl)-phenoxy]-ethyl}-2-(2,6-dimethoxy-pyridin-3-yl)-5,6-difluoro-1H-benzoimidazole] | 0.0002
O=C(O)c1cc(F)c(OCC(C2CCCCC2)n2c(-c3ccc(Cl)cc3)nc3ccccc32)c(F)c1 (single isomer, unassigned; (-)) [Example 104, (−)-4-{2-[2-(4-Chloro-phenyl)-benzoimidazol-1-yl]-2-cyclohexyl-ethoxy}-3,5-difluoro-benzoic acid] | 0.05
Cc1cc(C(=O)O)cc(C)c1OCC(C1CCCCC1)n1c(-c2ccc(Cl)cc2)nc2ccccc21 (single isomer, unassigned; (-)) [Example 106, (−)-4-{2-[2-(4-Chloro-phenyl)-benzoimidazol-1-yl]-2-cyclohexyl-ethoxy}-3,5-dimethyl-benzoic acid] | 0.1
O=C(O)c1cc(F)c(OCC(C2CCCCC2)n2c(-c3ccc(Cl)cc3)nc3ccccc32)c(Cl)c1 (single isomer, unassigned; (-)) [Example 109, (−)-3-Chloro-4-{2-[2-(4-chloro-phenyl)-benzoimidazol-1-yl]-2-cyclohexyl-ethoxy}-5-fluoro-benzoic acid] | 0.03
Cc1cc(-c2nnn[nH]2)cc(C)c1OCC(C1CCCCC1)n1c(-c2ccc(Cl)cc2)nc2ccccc21 (single isomer, unassigned; (-)) [Example 112, (−)-2-(4-Chloro-phenyl)-1-{1-cyclohexyl-2-[2,6-dimethyl-4-(1H-tetrazol-5-yl)-phenoxy]-ethyl}-1H-benzoimidazole] | 0.11
O=C(O)C1(Oc2ccc(OCC(C3CCCCC3)n3c(-c4ccc(Cl)cc4)nc4cc(F)c(F)cc43)cc2)CCC1 (single isomer, unassigned; (-)) [Example 119, (−)-1-(4-{2-[2-(4-Chloro-phenyl)-5,6-difluoro-benzoimidazol-1-yl]-2-cyclohexyl-ethoxy}-phenoxy)-cyclobutanecarboxylic acid] | 0.11
O=C(O)C1(Oc2ccc(OCC(C3CCCCC3)n3c(-c4ccc(Cl)cc4)nc4cc(F)c(F)cc43)cc2)CC1 (single isomer, unassigned; (-)) [Example 121, (−)-1-(4-{2-[2-(4-Chloro-phenyl)-5,6-difluoro-benzoimidazol-1-yl]-2-cyclohexyl-ethoxy}-phenoxy)-cyclopropanecarboxylic acid] | 0.02
Cc1cc(Cl)ccc1-c1nc2cc(F)c(F)cc2n1C(COc1c(F)cc(C(=O)O)cc1F)C1CCCCC1 (single isomer, unassigned; (-)) [Example 125, (−)-4-{2-[2-(4-Chloro-2-methyl-phenyl)-5,6-difluoro-benzoimidazol-1-yl]-2-cyclohexyl-ethoxy}-3,5-difluoro-benzoic acid] | 0.01
O=C(O)c1cc(F)c(OCC(C2CCCCCC2)n2c(-c3ccc(Cl)cc3)nc3cc(F)c(F)cc32)c(F)c1 (single isomer, unassigned; (-)) [Example 132, (−)-4-{2-[2-(4-Chloro-phenyl)-5,6-difluoro-benzoimidazol-1-yl]-2-cycloheptyl-ethoxy}-3,5-difluoro-benzoic acid] | 0.01
O=C(O)c1ccc(CCC(C2CCCCC2)n2c(-c3ccccc3)nc3cc(F)c(F)cc32)cc1 (single isomer, unassigned; (-)) [Example 143, (−)-4-[3-Cyclohexyl-3-(5,6-difluoro-2-phenyl-benzoimidazol-1-yl)-propyl]-benzoic acid] | 0.003
